PMC6261661 (ACS chemical neuroscience, 2018)
Square brackets hold non-standard residues; d marks the D form. Peptide text beside a SMILES is read from it. * marks the point of attachment. dBip = N[C@H](Cc1ccc(-c2ccccc2)cc1)C(=O)O; 1Nal = N[C@@H](Cc1cccc2ccccc12)C(=O)O; 2Nal = N[C@@H](Cc1ccc2ccccc2c1)C(=O)O; d1Nal = N[C@H](Cc1cccc2ccccc12)C(=O)O; d2Nal = N[C@H](Cc1ccc2ccccc2c1)C(=O)O; Bta = N[C@@H](Cc1csc2ccccc12)C(=O)O; 3Pal = N[C@@H](Cc1cccnc1)C(=O)O; Tic = O=C(O)[C@@H]1Cc2ccccc2CN1; 2Thi = N[C@@H](Cc1cccs1)C(=O)O; Octanoyl = CCCCCCCC(=O)*

How the values were obtained:
Format in all cases: cell-based
mMC5R = mMC5R (Mus musculus, UniProt P41149); assay: CRE/β-galactosidase reporter gene bioassay, agonist activity at mMC5R; conditions: for mMC5R pharmacology in words: comparisons are to reference peptide 1; for mMC5R Fold Diff.: fold difference in EC50 vs peptide 1, negative prefix = more potent than 1; for mMC5R fold less potent than peptide 1: less potent than 1
Chain of mMC5R (P41149 whole entry): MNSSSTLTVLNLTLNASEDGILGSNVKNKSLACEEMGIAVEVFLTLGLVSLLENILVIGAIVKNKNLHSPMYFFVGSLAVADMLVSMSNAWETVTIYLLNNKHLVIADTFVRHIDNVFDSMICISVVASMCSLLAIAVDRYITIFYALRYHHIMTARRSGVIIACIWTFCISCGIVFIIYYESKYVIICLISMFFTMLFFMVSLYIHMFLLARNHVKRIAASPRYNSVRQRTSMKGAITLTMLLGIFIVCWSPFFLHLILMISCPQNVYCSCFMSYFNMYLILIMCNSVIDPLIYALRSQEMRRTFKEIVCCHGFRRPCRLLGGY

mMC1R = mMC1R (Mus musculus, UniProt Q01727); assay: CRE/β-galactosidase reporter gene bioassay, agonist activity at mMC1R; conditions: for mMC1R Fold Diff: fold difference in EC50 vs peptide 1, negative prefix = more potent than 1; for EC50: mMC1R EC50, agonist, HEK-293 cells stably expressing receptor, ±SEM; for mMC1R fold decrease in potency compared to compound 1: less potent than 1
Chain of mMC1R (Q01727 whole entry): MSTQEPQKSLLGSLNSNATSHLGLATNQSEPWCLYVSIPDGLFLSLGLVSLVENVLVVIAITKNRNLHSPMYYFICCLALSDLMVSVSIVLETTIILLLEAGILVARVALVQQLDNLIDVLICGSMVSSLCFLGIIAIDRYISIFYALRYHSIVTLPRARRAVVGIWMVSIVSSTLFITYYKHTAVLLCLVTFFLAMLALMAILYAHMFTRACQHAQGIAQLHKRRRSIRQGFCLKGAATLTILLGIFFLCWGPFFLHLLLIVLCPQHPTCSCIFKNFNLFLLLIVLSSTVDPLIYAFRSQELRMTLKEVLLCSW

mMC3R = mMC3R (Mus musculus, UniProt P33033); assay: cell-based; conditions: for mMC3R Fold Diff: fold difference in EC50 vs peptide 1, negative prefix = more potent than 1; for mMC3R relative percentage of stimulation at 100 μM: 100000.0
Chain of mMC3R (P33033 whole entry): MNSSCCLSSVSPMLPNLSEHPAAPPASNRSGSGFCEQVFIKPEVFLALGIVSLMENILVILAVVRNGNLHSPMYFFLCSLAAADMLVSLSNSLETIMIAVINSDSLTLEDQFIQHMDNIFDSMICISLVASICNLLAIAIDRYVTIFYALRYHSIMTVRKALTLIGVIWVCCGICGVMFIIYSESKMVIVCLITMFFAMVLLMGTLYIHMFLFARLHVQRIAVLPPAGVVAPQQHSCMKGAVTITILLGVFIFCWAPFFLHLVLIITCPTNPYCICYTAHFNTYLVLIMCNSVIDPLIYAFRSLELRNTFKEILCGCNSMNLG

mMC4R = mMC4R (Mus musculus, UniProt P56450); assay: CRE/β-galactosidase reporter gene bioassay, agonist activity at mMC4R; conditions: for mMC4R Fold Diff.: fold difference in EC50 vs peptide 1, negative prefix = more potent than 1; for mMC4R fold less potent than compound 1: less potent than 1
Chain of mMC4R (P56450 whole entry): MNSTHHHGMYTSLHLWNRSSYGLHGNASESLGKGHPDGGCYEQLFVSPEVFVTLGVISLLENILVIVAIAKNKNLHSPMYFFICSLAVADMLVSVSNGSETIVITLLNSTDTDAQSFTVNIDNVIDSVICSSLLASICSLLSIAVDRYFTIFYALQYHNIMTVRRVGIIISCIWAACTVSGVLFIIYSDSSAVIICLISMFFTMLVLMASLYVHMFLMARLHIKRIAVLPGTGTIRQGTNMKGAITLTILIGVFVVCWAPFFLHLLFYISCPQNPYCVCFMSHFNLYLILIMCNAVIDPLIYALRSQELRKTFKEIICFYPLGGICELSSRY

SMILES | EC50 (mMC5R) [nM] | mMC1R Fold Diff (mMC1R) | EC50 (mMC1R) [nM] | mMC1R fold difference in EC50, more potent than reference peptide 1 (mMC1R; more potent agonist than 1) [fold] | EC50 (mMC3R) [nM] | mMC3R Fold Diff (mMC3R) | mMC3R fold difference, more potent agonist than Ac-His-DPhe-Arg-Trp-NH2 (mMC3R; more potent than 1) [fold] | EC50 (mMC4R) [nM] | mMC5R pharmacology in words (mMC5R) | mMC4R Fold Diff. (mMC4R) | mMC5R Fold Diff. (mMC5R) | mMC5R fold less potent than peptide 1 (mMC5R) | mMC1R pharmacology in words (mMC1R; comparisons are to reference peptide 1) | mMC3R relative percentage of stimulation at 100 μM (mMC3R) | mMC1R fold decrease in potency compared to compound 1 (mMC1R) [fold] | mMC4R fold less potent than compound 1 (mMC4R) [fold] | fold more potent at the mMC5R compared to the mMC1R (mMC5R; selectivity, agonist EC50) [fold] | fold more potent at the mMC5R compared to the mMC3R (mMC5R; selectivity, agonist EC50) [fold] | fold more potent at the mMC5R compared to the mMC4R (mMC5R; selectivity, agonist EC50) [fold]
CC(=O)N[C@@H](Cc1cnc[nH]1)C(=O)N[C@H](Cc1ccccc1)C(=O)N[C@@H](CCCN=C(N)N)C(=O)N[C@@H](Cc1c[nH]c2ccccc12)C(N)=O [Peptide 1, Ac-His-DPhe-Arg-Trp-NH2, reference compound] | 5.3 ± 1.6 |  |  |  |  |  |  |  |  |  |  |  |  |  |  |  |  |  | 
CCCCCCCC(=O)N[C@@H](Cc1c[nH]cn1)C(=O)N[C@H](Cc1ccccc1)C(=O)N[C@@H](CCCNC(=N)N)C(=O)N[C@@H](Cc1csc2ccccc12)C(N)=O [Peptide 3, Octanoyl-His-DPhe-Arg-3Bal-NH2] (Octanoyl-H[dF]R[Bta]-NH2) | 2.4 ± 0.5 | −10 | 14.6 ± 3.9 | 10 | 52 ± 7 | −11 | 11 | 13 ± 3 | equipotent |  |  |  |  |  |  |  |  |  | 
CCCCCCCC(=O)N[C@@H](Cc1c[nH]cn1)C(=O)N[C@H](Cc1ccccc1)C(=O)N[C@@H](CCCNC(=N)N)C(=O)N1Cc2ccccc2C[C@H]1C(N)=O [Peptide 4, Octanoyl-His-DPhe-Arg-Tic-NH2] (Octanoyl-H[dF]R[Tic]-NH2) | 270 ± 20 | −20 | 7.4 ± 2.1 |  | 6900 ± 400 | 12 |  | 1700 ± 300 | decreased potencies | 120 | 50 | 50 fold |  |  |  |  |  |  | 
CCCCCCCC(=O)N[C@@H](Cc1c[nH]cn1)C(=O)N[C@H](Cc1ccccc1)C(=O)N[C@@H](CCCNC(=N)N)C(=O)N[C@@H](Cc1ccccc1)C(N)=O [Peptide 5, Octanoyl-His-DPhe-Arg-Phe-NH2] (Octanoyl-H[dF]RF-NH2) | 26 ± 3 | −7 | 19.4 ± 2.1 |  | 290 ± 60 |  |  | 110 ± 10 | decreased potencies | 8 | 5 |  |  |  |  |  |  |  | 
CCCCCCCC(=O)N[C@H](Cc1c[nH]cn1)C(=O)N[C@H](Cc1ccccc1)C(=O)N[C@@H](CCCNC(=N)N)C(=O)N[C@@H](Cc1c[nH]c2ccccc12)C(N)=O [Peptide 9, Octanoyl-DHis-DPhe-Arg-Trp-NH2] | 290 ± 40 |  | 230 ± 30 |  | 4200 ± 800 | 7 |  | 340 ± 30 | decreased potencies | 25 | 55 | 55 fold |  |  |  |  |  |  | 
CCCCCCCC(=O)N[C@@H](Cc1c[nH]c2ccccc12)C(=O)N[C@H](Cc1ccccc1)C(=O)N[C@@H](CCCNC(=N)N)C(=O)N[C@@H](Cc1c[nH]c2ccccc12)C(N)=O [Peptide 10, Octanoyl-Trp-DPhe-Arg-Trp-NH2] (Octanoyl-W[dF]RW-NH2) | 58 ± 7 |  | 210 ± 30 |  |  |  |  | 180 ± 40 | decreased potencies | 13 | 11 |  | equipotent | 50%−65% |  |  |  |  | 
CC(=O)N[C@@H](Cc1c[nH]c2ccccc12)C(=O)N[C@H](Cc1cccc2ccccc12)C(=O)N[C@@H](CCCNC(=N)N)C(=O)N[C@@H](Cc1c[nH]c2ccccc12)C(N)=O [Peptide 19, Ac-Trp-DNal(1’)-Arg-Trp-NH2] (Ac-W[d1Nal]RW-NH2) | 3900 ± 2200 | 70 | 9700 ± 4700 |  | > 100000 |  |  | 12000 ± 4000 |  | 870 | 725 |  |  |  |  |  |  |  | 
CC(=O)N[C@@H](Cc1ccccc1)C(=O)N[C@H](Cc1ccc(-c2ccccc2)cc1)C(=O)N[C@@H](CCCNC(=N)N)C(=O)N[C@@H](Cc1c[nH]c2ccccc12)C(N)=O [Peptide 20, Ac-Phe-DBip-Arg-Trp-NH2] (Ac-F[dBip]RW-NH2) | 500 ± 70 | 71 | 10000 ± 4900 |  | > 100000 |  |  | 5400 ± 1600 |  | 395 | 94 |  |  |  |  |  |  |  | 
CC(=O)N[C@@H](Cc1ccccc1)C(=O)N[C@H](Cc1cccc2ccccc12)C(=O)N[C@@H](CCCNC(=N)N)C(=O)N[C@@H](Cc1c[nH]c2ccccc12)C(N)=O [Peptide 21, Ac-Phe-DNal(1’)-Arg-Trp-NH2] (Ac-F[d1Nal]RW-NH2) | 3800 ± 2100 | 28 | 3900 ± 1900 |  | > 100000 |  |  | 2800 ± 1000 |  | 205 | 720 |  |  |  |  |  |  |  | 
CC(=O)N[C@@H](Cc1cccnc1)C(=O)N[C@H](Cc1ccccc1)C(=O)N[C@@H](CCCNC(=N)N)C(=O)N[C@@H](Cc1ccc2ccccc2c1)C(N)=O [Peptide 23, Ac-3PAL-DPhe-Arg-Nal(2’)-NH2] (Ac-[3Pal][dF]R[2Nal]-NH2) | 240 ± 50 | 14 | 1900 ± 600 |  | > 100000 |  |  | 110 ± 20 |  | 8 | 45 |  |  |  | 14 | 8 |  |  | 
CC(=O)N[C@@H](Cc1c[nH]c2ccccc12)C(=O)N[C@H](Cc1ccccc1)C(=O)N[C@@H](CCCNC(=N)N)C(=O)N[C@@H](Cc1cccc2ccccc12)C(N)=O [Peptide 24, Ac-Trp-DPhe-Arg-Nal(1’)-NH2] (Ac-W[dF]R[1Nal]-NH2) | 3000 ± 1200 | 23 | 3300 ± 1200 |  |  |  |  | 1100 ± 300 |  | 77 | 566 |  |  | 50% |  |  |  |  | 
CC(=O)N[C@@H](Cc1c[nH]c2ccccc12)C(=O)N[C@H](Cc1ccccc1)C(=O)N[C@@H](CCCNC(=N)N)C(=O)N[C@@H](Cc1csc2ccccc12)C(N)=O [Peptide 25, Ac-Trp-DPhe-Arg-3Bal-NH2] (Ac-W[dF]R[Bta]-NH2) | 4800 ± 1700 | 57 | 8000 ± 3000 |  | > 100000 |  |  | 7900 ± 2400 |  | 576 | 905 | approximately 1000 fold |  |  |  | 580 |  |  | 
CC(=O)N[C@@H](Cc1c[nH]c2ccccc12)C(=O)N[C@H](Cc1ccccc1)C(=O)N[C@@H](CCCNC(=N)N)C(=O)N[C@H](Cc1ccc2ccccc2c1)C(N)=O [Peptide 26, Ac-Trp-DPhe-Arg-DNal(2’)-NH2] (Ac-W[dF]R[d2Nal]-NH2) | 5800 ± 600 | 167 | 23000 ± 7000 |  | > 100000 |  |  | 4300 ± 800 |  | 310 | 1094 | approximately 1000 fold |  |  | > 160 |  |  |  | 
CC(=O)N[C@@H](Cc1cccs1)C(=O)N[C@H](Cc1ccccc1)C(=O)N[C@@H](CCCNC(=N)N)C(=O)N[C@@H](Cc1csc2ccccc12)C(N)=O [Peptide 27, Ac-2Thi-DPhe-Arg-3Bal-NH2] (Ac-[2Thi][dF]R[Bta]-NH2) | 970 ± 290 | 45 | 6400 ± 1600 |  | > 100000 |  |  | 1300 ± 300 |  | 91 | 183 |  |  |  |  |  |  |  | 
CC(=O)N[C@@H](Cc1cccs1)C(=O)N[C@H](Cc1ccccc1)C(=O)N[C@@H](CCCNC(=N)N)C(=O)N[C@@H](Cc1ccc2ccccc2c1)C(N)=O [Peptide 28, Ac-2Thi-DPhe-Arg-Nal(2’)-NH2] (Ac-[2Thi][dF]R[2Nal]-NH2) | 76 ± 18 | 19 | 2600 ± 1300 |  | 12000 ± 6000 | 22 |  | 450 ± 190 |  | 33 | 14 | 14 fold |  |  |  |  | 35 | 163 | 6
